The record followed here is patent US6743923B2, “Antirheumatic agent” (Shionogi & Co., Ltd., priority 1997, dated 2004).

One test concerns NZB/KN mouse. Nature of the test: Inhibitory effect against bone destruction in spontaneous rheumatic model NZB/KN mouse. It is filed as in vivo. The note with it: male NZB/KN mice, oral, five times a week. The text has this:
To male NZB/KN mice, in which a human RA-like pathology arises spontaneously due to their immunologically abnormal background, was orally administered Compound Ia once in a day (five times a week) for six months beginning at two-month-age. The mice which reached six month old (some were eight month old) were full-length radiographed under anesthetization and predetermined conditions using a soft X-ray generator (OM-55, Omic). According to the method of Nakamura, et. al. [Arthritis. Rheum., 34, 171-179 (1991)], the number of the lesions observed in the bones and articular regions in the whole body were counted on the basis of the soft X-ray radiographed films, and the total number of the observed lesions were defined as the number of the bone disorders in the animal. The results were shown using mean±standard deviation, and significance test was performed according to Dunnett-t test (*p<0.05, ** p<0.01: vs. vehicle group).

The subject of test [1] is IL-6 production from neutrophil. In words: Inhibitory activity against IL-6 production, LPS-stimulated neutrophil fraction from human peripheral blood. The note with it: 10 μg/mL LPS, 16-18 hours, RIA. It is filed as cell-based.

For the compound `CCN1CC/C(=C\c2cc(C(C)(C)C)c(O)c(C(C)(C)C)c2)S1(=O)=O` [Compound Ia, (E)-2-Ethyl-5-(3,5-di-tert-butyl-4-hydroxy)benzylidene-1,2-isothiazolidine-1,1-dioxide], in the test with NZB/KN mouse, the “dose with significant improving effect on the bone-articular lesions” value is given as no less than 10 mg/kg/day. For the same compound, the IC50 in test [1] was 20 µM.

A word on the IC50: it is the midpoint of a concentration-inhibition curve. High values mean weaker potency in that assay, low ones greater potency in that assay.
